# Entries after “also recorded” stand apart in the source; their conditions may differ. Read-outs that look alike come from different tables or passages of the source.
# Assays:
# [1] = test system: Lgr5 GFP+ cochlear progenitor cells; assay: Lgr5+ Assay (Stem Cell Proliferation Assay); type: cell-based
# [2] = cited from earlier work; for Human Plasma Conc.: LSD1 inhibitors
# [3] = test system: Lgr5+ cochlear progenitor cells; assay: Quantification of Lgr5+ cochlear progenitor cell proliferation, expansion and enrichment (3D Matrigel culture, Celigo imaging, GFP(+) cell area); type: cell-based, mouse; conditions: for proliferation or enrichment of cochlear progenitor cells: inhibitor alone
# [4] = EZH2 inhibitors, active concentration range, <= is the upper end of a wrapped range
# [5] = EZH2 inhibitors, <= is the upper end of a wrapped range
# [6] = active concentration of LSD1 inhibitor, >= is the lower end of a range wrapped over two lines
structure (smiles),measurement,setting,value
CCS(=O)(=O)N1CCC(C(C)n2c(C)c(C(=O)NCc3c(OC)cc(C)[nH]c3=O)c3ccccc32)CC1 (centres unmarked) [CPI-169],Lgr5+ Assay,[1]; [4],0.1 to 10 µM
same,Lgr5 GFP(+) cell count,"[1]; FIG. 11A: 1.11 μM CPI-169 + 4 μM CHIR99021 in EFI vs EFI-C, EFI-CV",enhances Lgr5 GFP+ progenitor cell proliferation
same,Lgr5 GFP(+) cell area,[1]; FIG. 33A: 1.11 μM CPI-169 + 4 μM CHIR99021 in EFI vs CHIR alone,enhances Lgr5 GFP+ progenitor cell proliferation
same,Lgr5 GFP(+) cell area percentage,[1]; FIG. 33B: 1.11 μM CPI-169 + 4 μM CHIR99021 in EFI vs CHIR alone,enhances enrichment
same,Human In Vivo Conc,[2]; [5],1 to 10 µM
CC(C)N(CCCNC(=O)Nc1ccc(C(C)(C)C)cc1)C[C@H]1O[C@@H](n2cc(Br)c3c(N)ncnc32)[C@H](O)[C@@H]1O [SGC0946],Lgr5+ progenitor cell proliferation and enrichment,[3]; in combination with Wnt agonist CHIR99021,proliferation and enrichment are enhanced
same,Lgr5 GFP(+) cell count,"[1]; FIG. 35A: […] SGC0946 + 3 μM CHIR99021 in EFI vs EFI-C, EFI-CV",enhances Lgr5 GFP+ progenitor cell proliferation
same,Lgr5 GFP(+) cell proliferation percentage,"[1]; FIG. 35B: […] SGC0946 + 3 μM CHIR99021 in EFI vs EFI-C, EFI-CV",enhances enrichment
same,Human In Vivo Conc,[2]; DOT1L inhibitors,0.1 to 5 µM
CCN(c1cc(C#CCN2CCOCC2)cc(C(=O)NCc2c(C)cc(C)[nH]c2=O)c1C)[C@H]1CC[C@H](N(C)CCOC)CC1 [EPZ011989],proliferation or enrichment of cochlear progenitor cells,[3],does not promote proliferation or enrichment
same,Lgr5 GFP(+) cell area,[1]; FIG. 25A: 0-10 μM EPZ011989 alone in EFI,does not proliferate
same,enrichment of Lgr5 GFP+ cells (y-axis: Lgr5 GFP(+) cell area),[1]; FIG. 25B: 0-10 μM EPZ011989 alone in EFI,does not enrich
same,Lgr5 GFP(+) cell area,[1]; FIG. 26A-29A: 123 nM EPZ011989 + 4 uM CHIR99021 in EFI vs CHIR alone,enhances Lgr5 GFP+ progenitor cell proliferation
same,Lgr5 GFP(+) cell area percentage,[1]; FIG. 26B-29B: 123 nM EPZ011989 + 4 uM CHIR99021 in EFI vs CHIR alone,enhances enrichment
O=C(N/N=C/c1c(O)ccc2ccccc12)c1ccncc1 [AS 8351],Lgr5 GFP(+) cell count,"[1]; FIG. 37A: 2 μM AS 8351 + 3 μM CHIR99021 + 1 mM VPA in EFI vs EFI-C, EFI-CV",further enhances Lgr5 GFP+ progenitor cell proliferation
same,Lgr5 GFP(+) cell proliferation percentage,"[1]; FIG. 37B: 2 μM AS 8351 + 3 μM CHIR99021 + 1 mM VPA in EFI vs EFI-C, EFI-CV",further enhances enrichment
same,Lgr5+ Assay,"[1]; KDM inhibitors, active concentration range",1 to 3 µM
same,Human In Vivo Conc,[2]; KDM inhibitors,1000 to 3000 µM
COc1cc(C)[nH]c(=O)c1CNC(=O)c1c(C)n([C@H](C)C2CCOCC2)c2ccccc12 [CPI-360],Lgr5+ Assay,[1]; [4],0.1 to 10 µM
same,Lgr5 GFP(+) cell area,[1]; FIG. 12A: 0-30 μM CPI-360 alone in EFI,does not proliferate
same,Lgr5 GFP(+) cell area percentage,[1]; FIG. 12B: 0-30 μM CPI-360 alone in EFI,does not enrich
same,Lgr5 GFP(+) cell area,[1]; FIG. 13A-16A: 3.33 μM CPI-360 + 4 μM CHIR99021 in EFI vs CHIR alone,enhances Lgr5 GFP+ progenitor cell proliferation; also recorded: enhances Lgr5 GIP+ progenitor cell proliferation
same,Lgr5 GFP(+) cell area percentage,[1]; FIG. 13B-16B: 3.33 μM CPI-360 + 4 μM CHIR99021 in EFI vs CHIR alone,enhances enrichment
same,Human In Vivo Conc,[2]; [5],1 to 10 µM
NC1CC1c1ccccc1 (centres unmarked) [TCP],Lgr5+ Assay,"[1]; active concentration of LSD1 inhibitor, <= is the upper end of a range wrapped over two lines",0.1 to 20 µM
same,Human Plasma Conc. Cmax,"[2]; human plasma Cmax, >= and <= are the ends of a wrapped range",30 to 200 ng/mL
same,Cmax,"[2]; human plasma Cmax, read-out: Human Plasma Conc. Cmax (molar, in brackets)",225 to 1500 nM
N[C@@H]1C[C@H]1c1ccccc1 [tranylcypromine],Lgr5+ progenitor cell proliferation and enrichment,[3]; combined with CHIR99021 (4 μM) and VPA (1 mM),proliferate and are enriched
same,Lgr5+ progenitor cell proliferation and enrichment,[3]; combined with Wnt agonist CHIR99021 (4 μM),proliferate and are enriched
same,proliferation or enrichment of cochlear progenitor cells,[3],does not promote the proliferation or enrichment
same,Lgr5 GFP(+) cell count,"[1]; FIG. 1A: 0-10 μM tranylcypromine alone in growth factors (EFI, 50 ng/mL each) vs EFI + 4 μM CHIR99021 (EFI-C) or + 1 mM VPA (EFI-CV)",does not proliferate
same,Lgr5 GFP(+) cell proliferation percentage,"[1]; FIG. 1B: 0-10 μM tranylcypromine alone in EFI vs EFI-C, EFI-CV",does not enrich
same,Lgr5 GFP(+) cell count,"[1]; FIG. 2A: 2 μM tranylcypromine + 4 μM CHIR99021 in EFI vs EFI-C, EFI-CV",enhances Lgr5 GFP+ progenitor cell proliferation
same,Lgr5 GFP(+) cell proliferation percentage,"[1]; FIG. 2B: 2 μM tranylcypromine + 4 μM CHIR99021 in EFI vs EFI-C, EFI-CV",enhances enrichment
same,Lgr5 GFP(+) cell count,[1]; FIG. 3A: 4 μM tranylcypromine + 4 μM CHIR99021 + 1 mM VPA in EFI vs EFI-CV,enhances Lgr5 GFP+ progenitor cell proliferation
same,Lgr5 GFP(+) cell proliferation percentage,[1]; FIG. 3B: 4 μM tranylcypromine + 4 μM CHIR99021 + 1 mM VPA in EFI vs EFI-CV,enhances enrichment
c1ccc([C@@H]2C[C@H]2NC2CCNCC2)cc1 [GSK-LSD1],Lgr5 GFP(+) cell count,"[1]; FIG. 5A: 4.5 nM GSK-LSD1 + 4 μM CHIR99021 + 1 mM VPA in EFI vs EFI-C, EFI-CV",enhances Lgr5 GFP+ progenitor cell proliferation
same,Lgr5 GFP(+) cell proliferation percentage,"[1]; FIG. 5B: 4.5 nM GSK-LSD1 + 4 μM CHIR99021 + 1 mM VPA in EFI vs EFI-C, EFI-CV",enhances enrichment
same,Lgr5+ Assay,[1]; [6],≥ 4 nM-
same,Human Plasma Conc.,[2],1 to 100 nM
O=C(O)c1ccc(CN2CCC(CN[C@@H]3C[C@H]3c3ccccc3)CC2)cc1 [GSK2879552],Lgr5+ progenitor cell proliferation and enrichment,[3]; inhibitor 370 nM with CHIR99021 (4 μM) and VPA (1 mM),proliferation and enrichment are enhanced
same,Lgr5 GFP(+) cell count,"[1]; FIG. 4A: 370 nM GSK2879552 + 4 μM CHIR99021 + 1 mM VPA in EFI vs EFI-C, EFI-CV",enhances Lgr5 GFP+ progenitor cell proliferation
same,Lgr5 GFP(+) cell proliferation percentage,"[1]; FIG. 4B: 370 nM GSK2879552 + 4 μM CHIR99021 + 1 mM VPA in EFI vs EFI-C, EFI-CV",enhances enrichment
CC(C)N(CCCNC(=O)Nc1ccc(C(C)(C)C)cc1)C[C@H]1O[C@@H](n2ccc3c(N)ncnc32)[C@H](O)[C@@H]1O [EPZ004777],Lgr5+ progenitor cell proliferation and enrichment,"[3]; combined with CHIR99021, compared to CHIR99021 alone",proliferation and enrichment are enhanced
same,Lgr5+ Assay,"[1]; DOT1L inhibitors, active concentration range",0.6-45 μm μM
same,Lgr5 GFP(+) cell count,"[1]; FIG. 34A: 15 μM EPZ004777 + 3 μM CHIR99021 in EFI vs EFI-C, EFI-CV",enhances Lgr5 GFP+ progenitor cell proliferation
same,Lgr5 GFP(+) cell proliferation percentage,"[1]; FIG. 34B: 15 μM EPZ004777 + 3 μM CHIR99021 in EFI vs EFI-C, EFI-CV",enhances enrichment
same,Human In Vivo Conc,[2]; DOT1L inhibitors,0.1-45 uM μM
CN1CCN(C(=O)CN[C@H]2C[C@@H]2c2ccc(OCc3ccccc3)cc2)CC1.Cl.Cl [RN-1],Lgr5+ Assay,[1]; [6],0.041 µM
same,Human Plasma Conc.,[2],1 to 100 nM
CC(=O)O.Cc1cc(C)c(CN2CCc3c(Cl)cc(-c4c(C)noc4C)c(Cl)c3C2=O)c(=O)[nH]1 [PF 06726304 acetate],Lgr5+ progenitor cell enrichment,"[3]; in combination with CHIR99021 (FIG. 23, FIG. 24)",enriched
same,proliferation or enrichment of cochlear progenitor cells,[3],does not promote the proliferation or enrichment
same,Lgr5 GFP(+) cell area,[1]; FIG. 20A: 0-90 μM PF 06726304 acetate alone in EFI,does not proliferate
same,enrichment of Lgr5 GFP+ cells (y-axis: Lgr5 GFP(+) cell area),[1]; FIG. 20B: 0-90 μM PF 06726304 acetate alone in EFI,does not enrich
same,Lgr5 GFP(+) cell area,"[1]; FIG. 21A, 22A: 370 nM PF 06726304 acetate + 4 μM CHIR99021 in EFI vs CHIR alone",enhances Lgr5 GFP+ progenitor cell proliferation
same,Lgr5 GFP(+) cell area percentage,"[1]; FIG. 21B, 22B: 370 nM PF 06726304 acetate + 4 μM CHIR99021 in EFI vs CHIR alone",enhances enrichment
CCCc1cc(C)[nH]c(=O)c1CNC(=O)c1cc(-c2ccc(N3CCN(C(=O)CCOCCOCCOCCOCCOCCOCCOCCOCCOCCOCCOCCOCCNC(=O)CCCC[C@@H]4SC[C@@H]5NC(=O)N[C@@H]54)CC3)nc2)cc2c1cnn2C(C)C [UNC 2399],proliferation or enrichment of cochlear progenitor cells,[3],does not promote the proliferation or enrichment
same,Lgr5+ Assay,[1]; [4],0.1 to 10 µM
same,Lgr5 GFP(+) cell area,[1]; FIG. 30A: 0-10 μM UNC 2399 alone in EFI,does not proliferate
same,enrichment of Lgr5 GFP+ cells (y-axis: Lgr5 GFP(+) cell area),[1]; FIG. 30B: 0-10 μM UNC 2399 alone in EFI,does not enrich
same,Lgr5 GFP(+) cell area,[1]; FIG. 31A: 10 μM UNC 2399 + 4 μM CHIR99021 in EFI vs CHIR alone,enhances Lgr5 GFP+ progenitor cell proliferation
same,Lgr5 GFP(+) cell area percentage,[1]; FIG. 31B: 10 μM UNC 2399 + 4 μM CHIR99021 in EFI vs CHIR alone,enhances enrichment
same,Human In Vivo Conc,[2]; [5],0.1 to 100 µM
CN1CCN(C(=O)CN[C@H]2C[C@@H]2c2ccc(OCc3ccccc3)cc2)CC1.Cl.Cl [RN-1 HCl],proliferation or enrichment of cochlear progenitor cells,[3],does not promote the proliferation or enrichment
same,Lgr5 GFP(+) cell count,"[1]; FIG. 38A: 0-30 μM RN-1 HCl alone in EFI vs EFI-C, EFI-CV, EFI-CVT (7 μM tranylcypromine)",does not proliferate
same,enrichment of Lgr5 GFP+ cells (y-axis: Lgr5 GFP(+) cell count),"[1]; FIG. 38B: 0-30 μM RN-1 HCl alone in EFI vs EFI-C, EFI-CV, EFI-CVT",does not enrich
same,Lgr5 GFP(+) cell count,"[1]; FIG. 39A: 41 nM RN-1 + 4 μM CHIR99021 + 1 mM VPA in EFI vs EFI-C, EFI-CV, EFI-CVT",further enhances Lgr5 GFP+ progenitor cell proliferation
same,enrichment of Lgr5 GFP+ cells (y-axis: Lgr5 GFP(+) cell count),"[1]; FIG. 39B: 41 nM RN-1 + 4 μM CHIR99021 + 1 mM VPA in EFI vs EFI-C, EFI-CV, EFI-CVT",enhances enrichment
CCN(c1cc(-c2ccc(CN3CCOCC3)cc2)cc(C(=O)NCc2c(C)cc(C)[nH]c2=O)c1C)C1CCOCC1 [tazemetostat],Lgr5+ Assay,[1]; [4],0.1 to 10 µM
same,Human In Vivo Conc,"[2]; EZH2 inhibitors, >= is the lower end of a wrapped range",(200-1600 nM)
same,Human In Vivo Conc,[2]; EZH2 inhibitors,100 to 800 ng/mL

# Source: US20220127568A1, “COMPOSITIONS AND METHODS FOR GENERATING HAIR CELLS BY INHIBITING EPIGENETIC TARGETS” (Frequency Therapeutics, Inc., priority 2019, published 2022)
